Key:
[1] = Stability of compound B under dissolution conditions with varying amounts of TsOH.H2O (Test Example 2); type: physicochemical; conditions: ethanol having a water content of 30%, 70° C.
Protocol: FIG. 2 depicts time-dependent (hr; abscissa) change in the amount of compound B (%; ordinate) with the initial (0 hr) amount of compound B defined as 100%.
The stability of compound B was determined using varying amounts of TsOH.H2O under conditions for dissolving compound B in a solvent (ethanol having a water content of 30%, 70° C.). Specifically, 7 ml of ethanol having a water content of 30% and TsOH.H2O were added in combinations shown below to 1.0 g of compound B, followed by dissolution at 70° C. The content of the compound B was measured at constant time intervals by HPLC (column: Shiseido CAPCELL PAK CN UG120 (4.6×250 mm), column temperature: 40° C., flow rate: 1.0 ml/min., mobile phase: acetonitrile:0.02 M phosphate buffer (pH 7.0)=30:70).

[2] = Solubility of compound A under crystallization conditions with varying amounts of TsOH.H2O (Test Example 1); type: physicochemical; conditions: ethanol having a water content of 10%, 10° C.
Protocol: The ordinate depicts the solubility (mg/ml) of compound A, and the abscissa depicts the molar equivalent of p-toluenesulfonic acid monohydrate (vs. compound B).
The solubility of compound A was determined using varying amounts of TsOH.H2O under conditions for crystallizing compound A (ethanol having a water content of 10%, 10° C.). Specifically, compound A, compound B, and TsOH.H2O were added in the combinations shown below to 10 ml of ethanol having a water content of 10%. The resulting slurry was stirred at 10° C., and crystals were collected by filtration. Then, the content of the compound A contained in the filtered mother liquor was measured by HPLC (column: Shiseido CAPCELL PAK CN UG120 (4.6×250 mm), column temperature: 40° C., flow rate: 1.0 ml/min., mobile phase: acetonitrile:0.02 M phosphate buffer (pH 7.0)=30:70).

| Structure (SMILES) | decomposition of compound B (decrease in compound B content) ([1]; TsOH.H2O at less than 1.0 molar equivalent (vs. compound B)) | decomposition of compound B (decrease in compound B content) ([1]; TsOH.H2O at more than 1.0 molar equivalent (vs. compound B)) | solubility of compound A ([2]; TsOH.H2O larger than 1.00 molar equivalent with respect to compound B) | solubility of compound A ([2]; TsOH.H2O smaller than 1.00 molar equivalent with respect to compound B) |
| --- | --- | --- | --- | --- |
| CN1CCc2nc(C(=O)N[C@@H]3C[C@@H](C(=O)N(C)C)CC[C@@H]3NC(=O)C(=O)Nc3ccc(Cl)cn3)sc2C1 [compound B, N^1-(5-chloropyridin-2-yl)-N^2-((1S,2R,4S)-4-[(dimethylamino)carbonyl]-2-{[(5-methyl-4,5,6,7-tetrahydrothiazolo[5,4-c]pyridin-2-yl)carbonyl]amino}cyclohexyl)ethanediamide] | suppressed | promoted with the excess | – | – |
| CN1CCc2nc(C(=O)N[C@@H]3C[C@@H](C(=O)N(C)C)CC[C@@H]3NC(=O)C(=O)Nc3ccc(Cl)cn3)sc2C1.Cc1ccc(S(=O)(=O)O)cc1.O [compound A, N^1-(5-chloropyridin-2-yl)-N^2-((1S,2R,4S)-4-[(dimethylamino)carbonyl]-2-{[(5-methyl-4,5,6,7-tetrahydrothiazolo[5,4-c]pyridin-2-yl)carbonyl]amino}cyclohexyl)ethanediamide p-toluenesulfonic acid monohydrate] | – | – | reduced | increased |

Reference: US8404847B2, “Method for producing diamine derivative” (Daiichi Sankyo Company, Limited, priority 2008, dated 2013)
